Data from article PMC3045540 (Molecular and biochemical parasitology, 2010).
Where two headings read alike, the source gives them in different places.

How the values were obtained:
[1] = target: HsGSK-3β (Homo sapiens, UniProt P49841); test: Kinase-Glo assay, inhibition of human GSK-3β; format: biochemical; details: read-out: Mean IC50 (SD), HsGSK-3b; 3.2 μM BioGSP-2, 2 μM ATP, 90 minutes at 30°C
[2] = target: LmajFGSK-3 (LmajGSK-3 short Y102F mutant) (Leishmania major, UniProt Q4QE15, Y102F); test: biochemical; format: biochemical, L. major
[3] = target: LmajEGSK-3 (LmajGSK-3 short D105E mutant) (Leishmania major, UniProt Q4QE15, D105E); test: biochemical; format: biochemical, L. major
[4] = target: LmajGSK-3 short (Leishmania major, UniProt Q4QE15); test: biochemical; design: species or system L. major
[5] = target: LinfGSK-3 short (Leishmania infantum, UniProt A4HXQ3); test: biochemical; format: biochemical, L. infantum; details: for mode of inhibition of LinfGSK-3 short (velocity at different ATP concentrations): Fig. 3A
[6] = target: TbruGSK-3 short (Trypanosoma brucei brucei, UniProt Q388M1); test: biochemical; format: biochemical, T. brucei
[7] = target: LmajEFGSK-3 (LmajGSK-3 short Y102F and D105E double mutant) (Leishmania major, UniProt Q4QE15, D105E/Y102F); test: biochemical; design: species or system L. major
[8] = read-out: Mean IC50 (SD), LmajFGSK-3, Y102F mutant, 8.2 nM enzyme, 3.2 μM BioGSP-2, 2 μM ATP, 90 minutes at 30°C

HsGSK-3β, sequence (P49841 whole entry): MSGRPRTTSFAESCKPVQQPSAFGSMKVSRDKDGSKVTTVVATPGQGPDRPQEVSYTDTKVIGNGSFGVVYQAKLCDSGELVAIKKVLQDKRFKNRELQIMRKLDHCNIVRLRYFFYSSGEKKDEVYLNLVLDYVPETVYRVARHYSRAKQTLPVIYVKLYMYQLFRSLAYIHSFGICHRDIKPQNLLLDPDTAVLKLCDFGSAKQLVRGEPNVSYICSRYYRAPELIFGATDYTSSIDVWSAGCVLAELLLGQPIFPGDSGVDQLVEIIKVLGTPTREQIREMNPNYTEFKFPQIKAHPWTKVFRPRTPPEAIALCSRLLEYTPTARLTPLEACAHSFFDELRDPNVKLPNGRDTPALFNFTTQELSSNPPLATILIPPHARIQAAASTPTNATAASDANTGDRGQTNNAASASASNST

N#CCCc1ccc2c(c1)-c1[nH]c3ccc([N+](=O)[O-])cc3c1CC(=O)N2 [Alster-paullone, 2-cyanoethyl]
IC50 [1]: 20 nM
IC50 [2, 8]: 310 nM

O=C1Nc2ccccc2/C1=C/c1cnc[nH]1 [Angio-genesis inhibitor]
IC50 [1]: 1620 nM
IC50 [2, 8]: 8470 nM

COc1ccc(CNC(=O)Nc2ncc([N+](=O)[O-])s2)cc1 [GSK-3β Inhibitor VIII]
Mean IC50 (SD), LmajEGSK-3 ([3]; D105E mutant, 8.2 nM enzyme, 3.2 μM BioGSP-2, 2 μM ATP, 90 minutes at 30°C): no activity
Mean IC50 (SD), LmajFGSK-3 ([2]; Y102F mutant, 8.2 nM enzyme, 3.2 μM BioGSP-2, 2 μM ATP, 90 minutes at 30°C): no activity
Mean IC50 (SD), LmajGSK-3 ([4]; 8.2 nM enzyme, 3.2 μM BioGSP-2, 2 μM ATP, 90 minutes at 30°C): no activity
Mean IC50 (SD), LinfGSK-3 ([5]; 2.8 nM enzyme, 3.2 μM BioGSP-2, 2 μM ATP, 90 minutes at 30°C): no activity

O=C1Nc2ccc3ncsc3c2/C1=C/Nc1ccc(S(=O)(=O)Nc2ccccn2)cc1 [GW8510]
effect of mutation D105E of LmajGSK-3 short on sensitivity to inhibition ([3]; relative to wild type LmajGSK-3 short): ~2 fold
IC50 [1]: 20 nM
IC50 ([2]; read-out: IC50 value for the LmajGSK-3 short Y102F mutant): 93 nM
IC50 [2, 8]: 90 nM
mode of inhibition of LinfGSK-3 short (velocity at different ATP concentrations) [5]: ATP competitive
IC50 ([5]; read-out: IC50 value for LinfGSK-3 short): 628 nM
IC50 ([6]; read-out: IC50 value for TbruGSK-3 short): 21 nM

NC1=NC(=O)/C(=C2\CCNC(=O)c3[nH]c(Br)cc32)N1 [Hymeni-aldisine, Stylissa dami-cornis, Hymenialdisine]
IC50 [3]: 10400 nM
IC50 [2]: 16100 nM
IC50 [4]: 13100 nM
IC50 [5]: 18200 nM
IC50 [7]: 9250 nM
IC50 [6]: 3950 nM

O=C1Nc2ccc(S(=O)(=O)O)cc2C1=C1Nc2ccccc2C1=NO [Indirubin-3'-monoxime-5-sulphonic Acid]
IC50 [1]: 60 nM
IC50 [2, 8]: 930 nM

Cn1cc(C2=C(c3cn(CCCN)c4ccccc34)C(=O)NC2=O)c2ccccc21 [Ro-31-7549]
IC50 [1]: 4 nM
IC50 [2, 8]: 1080 nM

COc1ccc2c(c1)/C(=C/c1cnc[nH]1)C(=O)N2 [SU9516]
IC50 [3]: 3150 nM
IC50 [2]: 1400 nM
IC50 [4]: 3040 nM
IC50 [5]: 1870 nM
IC50 [7]: 1290 nM
IC50 [6]: 590 nM

Cdk1/2 Inhibitor III
IC50 [1]: 210 nM
IC50 [2, 8]: 150 nM
mode of inhibition of LinfGSK-3 short (velocity at different ATP concentrations) [5]: ATP competitive
